Measurements published in US20220402950A1, “SUBSTITUTED BENZIMIDAZOLES AS PAD4 INHIBITORS” (BRISTOL-MYERS SQUIBB COMPANY, priority 2018, published 2022).

target: human PAD4 (hPAD4) (Homo sapiens, UniProt Q9UM07); assay: RFMS Human PAD4 Functional Assay; format: biochemical; details: hPAD4 RFMS IC50, human PAD4, rapid-fire mass spectrum (RFMS) assay; 5 nM hPAD4, 250 μM BAEE
Procedure, shortened: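 RapidFire ESI-MS quantification, normalised to a modified-citrulline internal standard, after phenyl glyoxal (final 4 mM) derivatisation of the TCA-quenched reaction. The enzyme (10 nM) sat 30 min with compound (up to 50 μM final) before 500 μM BAEE (as added) started a 90 min, 37 °C reaction. Buffer: HEPES pH 7.5, 50 μM calcium, 5 μM TPEN.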

human PAD4 (hPAD4), sequence (Q9UM07 whole entry): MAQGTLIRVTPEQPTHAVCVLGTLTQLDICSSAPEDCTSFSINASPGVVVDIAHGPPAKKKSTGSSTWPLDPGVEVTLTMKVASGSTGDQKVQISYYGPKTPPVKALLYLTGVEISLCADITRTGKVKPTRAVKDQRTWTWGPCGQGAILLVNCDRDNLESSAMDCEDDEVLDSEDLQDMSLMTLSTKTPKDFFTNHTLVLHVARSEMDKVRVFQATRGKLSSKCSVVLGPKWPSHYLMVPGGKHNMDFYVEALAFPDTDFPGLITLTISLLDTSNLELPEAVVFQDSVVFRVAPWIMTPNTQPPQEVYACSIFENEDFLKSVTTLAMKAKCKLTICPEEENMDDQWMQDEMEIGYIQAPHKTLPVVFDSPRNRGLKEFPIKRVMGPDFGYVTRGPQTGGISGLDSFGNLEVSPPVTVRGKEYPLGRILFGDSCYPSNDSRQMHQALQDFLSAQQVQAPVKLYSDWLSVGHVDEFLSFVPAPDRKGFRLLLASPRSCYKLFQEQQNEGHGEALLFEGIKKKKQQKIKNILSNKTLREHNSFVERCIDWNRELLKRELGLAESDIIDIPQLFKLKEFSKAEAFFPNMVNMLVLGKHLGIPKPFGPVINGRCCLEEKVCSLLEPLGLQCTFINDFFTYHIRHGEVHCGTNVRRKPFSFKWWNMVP

| Compound | IC50 [nM] |
| --- | --- |
| COc1cc(C(=O)N2C[C@H]3CC[C@@H]2[C@@H]3N)cc2nc(-c3cc4cccc(C5CN(C(=O)Cc6cnccn6)C5)c4n3CC3CC3)n(C)c12 [Example 76, 1-[3-(2-{5-[(1R,4R,7R)-7-amino-2-azabicyclo[2.2.1]heptane-2-carbonyl]-7-methoxy-1-methyl-1H-1,3-benzodiazol-2-yl}-1-(cyclopropylmethyl)-1H-indol-7-yl)azetidin-1-yl]-2-(pyrazin-2-yl)ethan-1-one] | 19 |
| COc1cc(C(=O)N2C[C@H]3CC[C@@H]2[C@@H]3N)cc2nc(-c3cc4cccc(C5=CCC5)c4n3CC3CC3)n(C)c12 [Example 219, ((1R,4R,7R)-7-amino-2-azabicyclo[2.2.1]heptan-2-yl)(2-(7-(cyclobut-1-en-1-yl)-1-(cyclopropylmethyl)-1H-indol-2-yl)-7-methoxy-1-methyl-1H-benzo[d]imidazol-5-yl)methanone] | 52 |
| COc1cc(C(=O)N2C[C@H]3CC[C@@H]2[C@@H]3N)cc2nc(-c3cc4cccc(C5CN(C(=O)Cc6nnn[nH]6)C5)c4n3CC3CC3)n(C)c12 [Example 81, 1-[3-(2-{5-[(1R,4R,7R)-7-amino-2-azabicyclo[2.2.1]heptane-2-carbonyl]-7-methoxy-1-methyl-1H-1,3-benzodiazol-2-yl}-1-(cyclopropylmethyl)-1H-indol-7-yl)azetidin-1-yl]-2-(1H-1,2,3,4-tetrazol-5-yl)ethan-1-one] | 16 |
| COc1cc(C(=O)N2C[C@H]3CC[C@@H]2[C@@H]3N)cc2nc(-c3cc4cccc(C5CCN(C(=O)C6CC67CC7)CC5)c4n3CC3CC3)n(C)c12 (stereo partly drawn) [Example 224, (4-(2-(5-((1R,4R,7R)-7-amino-2-azabicyclo[2.2.1]heptane-2-carbonyl)-7-methoxy-1-methyl-1H-benzo[d]imidazol-2-yl)-1-(cyclopropylmethyl)-1H-indol-7-yl)piperidin-1-yl)(spiro[2.2]pentan-1-yl)methanone] | 78 |
| COc1cc(C(=O)N2CC3CCC2[C@@H]3N)cc2nc(-c3cc4cccc(Nc5ccnc(C(N)=O)n5)c4n3CC3CC3)n(C)c12 (stereo partly drawn) [Example 160, 4-((2-(5-((7R)-7-amino-2-azabicyclo[2.2.1]heptane-2-carbonyl)-7-methoxy-1-methyl-1H-benzo[d]imidazol-2-yl)-1-(cyclopropylmethyl)-1H-indol-7-yl)amino)pyrimidine-2-carboxamide] | 110 |
| COc1cc(C(=O)N2CC3CCC2[C@@H]3N)cc2nc(-c3cc4cccc(Nc5ccc(CO)cc5)c4n3CC3CC3)n(C)c12 (stereo partly drawn) [Example 164, ((7R)-7-amino-2-azabicyclo[2.2.1]heptan-2-yl)(2-(1-(cyclopropylmethyl)-7-((4-(hydroxymethyl)phenyl)a-mino)-1H-indol-2-yl)-7-methoxy-1-methyl-1H-benzo[d]imidazol-5-yl)methanone] | 153 |
| COc1cc(C(=O)N2C[C@H]3CC[C@@H]2[C@@H]3N)cc2nc(-c3cc4cccc(C5CC(C(=O)N6CCC6)C5)c4n3CC3CC3)n(C)c12 (single isomer, unassigned; isomer 2) [Example 203] | 46 |
| COc1cc(C(=O)N2C[C@H]3CC[C@@H]2[C@@H]3N)cc2nc(-c3cc4cccc(-c5ccc6c(c5)C(C)(O)C(=O)N6)c4n3CC3CC3)n(C)c12 (stereo partly drawn) [Example 192, 5-(2-(5-((1R,4R,7R)-7-amino-2-azabicyclo[2.2.1]heptane-2-carbonyl)-7-methoxy-1-methyl-1H-benzo[d]imidazol-2-yl)-1-(cyclopropylmethyl)-1H-indol-7-yl)-3-hydroxy-3-methylindolin-2-one] | 28 |
| COCCCC(=O)N1CCC(c2cccc3cc(-c4nc5cc(C(=O)N6C[C@H]7CC[C@@H]6[C@@H]7N)cc(OC)c5n4C)n(CC4CC4)c23)CC1 [Example 237, 1-(4-(2-(5-((1R,4R,7R)-7-amino-2-azabicyclo[2.2.1]heptane-2-carbonyl)-7-methoxy-1-methyl-1H-benzo[d]imidazol-2-yl)-1-(cyclopropylmethyl)-1H-indol-7-yl)piperidin-1-yl)-4-methoxybutan-1-one] | 18 |
| COc1cc(C(=O)N2C[C@H]3CC[C@@H]2[C@@H]3N)cc2nc(-c3cc4cccc(Br)c4n3CC3CC3(F)F)n(C)c12 (stereo partly drawn) [Example 146, ((1R,4R,7R)-7-amino-2-azabicyclo[2.2.1]heptan-2-yl)(2-(7-bromo-1-((2,2-difluorocyclopropyl)meth-yl)-1H-indol-2-yl)-7-methoxy-1-methyl-1H-benzo[d]imidazol-5-yl)methanone] | 52 |
| COc1cc(C(=O)N2CC3CCC2[C@@H]3N)cc2nc(-c3cc4cccc(-c5cccnc5)c4n3CC3CC3)n(C)c12 (stereo partly drawn) [Example 134, ((7R)-7-amino-2-azabicyclo[2.2.1]heptan-2-yl)(2-(1-(cyclopropylmethyl)-7-(pyridin-3-yl)-1H-indol-2-yl)-7-methoxy-1-methyl-1H-benzo[d]imidazol-5-yl)methanone] | 155 |
| COc1cc(C(=O)N2C[C@H]3CC[C@@H]2[C@@H]3N)cc2nc(-c3cc4cccc(-c5ccc6c(c5)CCC(=O)N6)c4n3CC3CC3)n(C)c12 [Example 99, 6-(2-{5-[(1R,4R,7R)-7-amino-2-azabicyclo[2.2.1]heptane-2-carbonyl]-7-methoxy-1-methyl-1H-1,3-benzodiazol-2-yl}-1-(cyclopropylmethyl)-1H-indol-7-yl)-1,2,3,4-tetrahydroquinolin-2-one] | 38 |
| COc1cc(C(=O)N2C[C@H]3CC[C@@H]2[C@@H]3N)cc2nc(-c3cc4cccc(C5CC(C(=O)N6CC[C@@H](O)C6)C5)c4n3CC3CC3)n(C)c12 (single isomer, unassigned) [Example 52] | 97 |
| COc1cc(C(=O)N2C[C@H]3CC[C@@H]2[C@@H]3N)cc2nc(-c3cc4cccc(C5CC(C(=O)N6CC[C@H](O)C6)C5)c4n3CC3CC3)n(C)c12 (single isomer, unassigned) [Example 53] | 51 |
| COc1cc(C(=O)N2CC3CCC2[C@@H]3N)cc2nc(-c3cc4cccc(-c5ccc6ccn(C)c6c5)c4n3CC3CC3)n(C)c12 (stereo partly drawn) [Example 126, ((7R)-7-amino-2-azabicyclo[2.2.1]heptan-2-yl)(2-(1′-(cyclopropylmethyl)-1-methyl-1H,1′H-[6,7′-biindol]-2′-yl)-7-methoxy-1-methyl-1H-benzo[d]imidazol-5-yl)methanone] | 110 |
| COc1cc(C(=O)N2C[C@H]3CC[C@@H]2[C@@H]3N)cc2nc(-c3cc4cccc(Nc5c(C)nn(C)c5C)c4n3CC3CC3(Cl)Cl)n(C)c12 (stereo partly drawn) [Example 176, ((1R,4R,7R)-7-amino-2-azabicyclo[2.2.1]heptan-2-yl)(2-(1-((2,2-dichlorocyclopropyl)meth-yl)-7-((1,3,5-trimethyl-1H-pyrazol-4-yl)amino)-1H-indol-2-yl)-7-methoxy-1-methyl-1H-benzo[d]imidazol-5-yl)methanone] | 76 |
| COc1cc(C(=O)N2C[C@H]3CC[C@@H]2[C@@H]3N)cc2nc(-c3cc4cccc(C5CC(C(N)=O)C5)c4n3CC3CC3)n(C)c12 (single isomer, unassigned) [Example 45] | 25 |
| COc1cc(C(=O)N2C[C@H]3CC[C@@H]2[C@@H]3N)cc2nc(-c3cc4cccc(C5CCN(C(=O)OCc6ccccc6)C5)c4n3CC3CC3)n(C)c12 (stereo partly drawn) [Example 28, benzyl 3-(2-{5-[(1R,4R,7R)-7-amino-2-azabicyclo[2.2.1]heptane-2-carbonyl]-7-methoxy-1-methyl-1H-1,3-benzodiazol-2-yl}-1-(cyclopropylmethyl)-1H-indol-7-yl)pyrrolidine-1-carboxylate] | 67 |
| COc1cc(C(=O)N2C[C@H]3CC[C@@H]2[C@@H]3N)cc2nc(-c3cc4cccc(C5CCN(C(=O)COC(C)C)CC5)c4n3CC3CC3)n(C)c12 [Example 239, 1-(4-(2-(5-((1R,4R,7R)-7-amino-2-azabicyclo[2.2.1]heptane-2-carbonyl)-7-methoxy-1-methyl-1H-benzo[d]imidazol-2-yl)-1-(cyclopropylmethyl)-1H-indol-7-yl)piperidin-1-yl)-2-isopropoxyethan-1-one] | 119 |
| COc1cc(C(=O)N2C[C@H]3CC[C@@H]2[C@@H]3N)cc2nc(-c3cc4cccc(C5CC(C(=O)O)C5)c4n3CC3CC3)n(C)c12 (single isomer, unassigned) [Example 55] | 122 |

same assay, conditions: human PAD4, rapid-fire mass spectrum (RFMS) assay; 5 nM hPAD4, 250 μM BAEE; read-out: hPAD4 RFMS IC50

| Compound | IC50 [nM] |
| --- | --- |
| COc1cc(C(=O)N2C[C@H]3CC[C@@H]2[C@@H]3N)cc2nc(-c3cc4cccc(C5CN(S(C)(=O)=O)C5)c4n3CC3CC3)n(C)c12 [Example 64, (1R,4R,7R)-2-{2-[1-(cyclopropylmethyl)-7-(1-methanesulfonylazetidin-3-yl)-1H-indol-2-yl]-7-methoxy-1-methyl-1H-1,3-benzodiazole-5-carbonyl}-2-azabicyclo[2.2.1]heptan-7-amine] | 31 |
| COc1cc(C(=O)N2C[C@H]3CC[C@@H]2[C@@H]3N)cc2nc(-c3cc4cccc(-c5cnn(C)c5)c4n3CC3CC3)n(C)c12 [Example 122, ((1R,4R,7R)-7-amino-2-azabicyclo[2.2.1]heptan-2-yl)(2-(1-(cyclopropylmethyl)-7-(1-methyl-1H-pyrazol-4-yl)-1H-indol-2-yl)-7-methoxy-1-methyl-1H-benzo[d]imidazol-5-yl)methanone] | 57 |
| CNC(=O)C1CC(c2cccc3cc(-c4nc5cc(C(=O)N6C[C@H]7CC[C@@H]6[C@@H]7N)cc(OC)c5n4C)n(CC4CC4)c23)C1 (single isomer, unassigned) [Example 44] | 48 |
| COc1cc(C(=O)N2C[C@H]3CC[C@@H]2[C@@H]3N)cc2nc(-c3cc4cccc(C5CC6(CNC6)C5)c4n3CC3CC3)n(C)c12 [Example 61, (1R,4R,7R)-2-[2-(7-{2-azaspiro[3.3]heptan-6-yl}-1-(cyclopropylmethyl)-1H-indol-2-yl)-7-methoxy-1-methyl-1H-1,3-benzodiazole-5-carbonyl]-2-azabicyclo[2.2.1]heptan-7-amine] | 34 |
| COc1cc(C(=O)N2C[C@H]3CC[C@@H]2[C@@H]3N)cc2nc(-c3cc4cccc(C5CC(NC(C)=O)C5)c4n3CC3CC3)n(C)c12 (single isomer, unassigned) [Example 59] | 59 |
